Assay results from patent US4218443A, “Polyether ionophores as antiobesity and hypotriglyceridemic agents” (Hoffmann-La Roche Inc., priority 1979, dated 1980).

Legend:
[1] = tested on: female Charles River rats; test: Chronic 31 day dietary admix experiment; format: in vivo, Charles River rat; conditions: 31 days; for Body Weight Gain / Body Weight final / Fat Absorption / Food Consumption / Food Efficiency / Serum Cholesterol / Serum Free Fatty Acids / Serum Glucose / Serum IRI (immunoreactive insulin) / Serum Triglycerides: sodium salt, mean ± SE
Source text: (§1) Faster enzymatic procedure for serum triglycerides, Clinical Chemistry, 21: 1983-1985], cholesterol, [C. C. Allain, L. Poon, S. G. Chan, W. Richmond and P. Fu (1974). Enzymatic determination of total serum cholesterol, Clinical Chemistry, 20: 470-475] and glucose, [R. Konig, H. Dauwalder and R. Richterich (1971). Vergleichende Bestimmungen der Uringlucosekonzentration mit der Polarimetrie und einer enzymatischen Methode (Hexokinase/Glucose-6-Phosphat-Dehydrogenase), Schweiz. Med. Wschr., 101: 860-866], by enzymatic procedures and free fatty acids, [C. Dalton and C. Kowalski (1967). Automated colorimetric determination of free fatty acids in biologic fluids, Clinical Chemistry, 13: 744-751], by a Colorimetric procedure. Serum immunoreactive insulins were determined by radioimmunoassay, [G. F. Bryce, P. R. Johnson, A. C. Sullivan, J. S. Stern (1977). Insulin and glucagon: Plasma levels and pancreatic release in the gentically obese Zucker rat, Hormone and Metabolic Research, 9: 366-370].
(§2) FIG. 2 sets forth body weight gain values of rats matched for initial body weight and pair fed 10% corn oil diet without dinitrodescarboxylasalocid and three groups of pair fed rats receiving 60, 120 and 240 mg/kg of dinitrodescarboxylasalocid as dietary admixes for 31 days respectively. […] Tables 12 and 13 describe the effects of dinitrodescarboxylasalocid (150 mg/kg b.i.d. by oral intubation) in genetically obese and lean Zucker rats for 21 days.

[2] = tested on: obese and lean female Zucker rats; test: Chronic 21 day experiment in obese and lean Zucker rats; format: in vivo, Zucker rat; conditions: 150 mg/kg b.i.d. oral, 21 days, sodium salt, mean ± SE
Source text: Ad libitum fed lean and genetically obese Zucker rats (140 days old) were used in one chronic study.
as §1, §2

[3] = tested on: intestinal absorption of triglycerides (corn oil); test: In vivo absorption of triglycerides (corn oil absorption); conditions: Experiment 2, sodium
human pancreatic lipase = biological target: T1, human pancreatic lipase (Homo sapiens, UniProt P16233); test: In vitro titrimetric (Radiometer pH-stat) pancreatic lipase assay, Dixon plots; format: biochemical; conditions: Dixon plots
T1 construct: Human pancreatic juice was obtained from a patient with acute pancreatitis; from tissue; host or cells: human pancreatic juice from the cannulated duct of a patient with acute pancreatitis; gift of Dr. George Nardi, Massachusetts General Hospital
T1 sequence (P16233 17-465): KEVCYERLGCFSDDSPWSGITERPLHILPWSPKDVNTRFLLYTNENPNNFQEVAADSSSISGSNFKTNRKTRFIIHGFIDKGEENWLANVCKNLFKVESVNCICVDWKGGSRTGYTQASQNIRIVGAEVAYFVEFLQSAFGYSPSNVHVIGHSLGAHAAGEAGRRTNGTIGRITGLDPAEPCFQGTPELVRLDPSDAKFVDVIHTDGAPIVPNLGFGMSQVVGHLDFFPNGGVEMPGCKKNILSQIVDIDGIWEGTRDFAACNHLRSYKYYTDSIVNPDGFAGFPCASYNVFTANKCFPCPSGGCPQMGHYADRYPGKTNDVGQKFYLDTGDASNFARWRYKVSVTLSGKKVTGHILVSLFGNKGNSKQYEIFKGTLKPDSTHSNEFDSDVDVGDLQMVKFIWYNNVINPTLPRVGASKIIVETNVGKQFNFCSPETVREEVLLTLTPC

[4] = tested on: rats in the five day two hour meal model; test: Five day two hour meal model; format: in vivo, rat; conditions: sodium salt, mean ± SE
Procedure: A five day two hour meal model was developed to evaluate the effects of lipase inhibitors in vivo. [^14 C]-triolein and [^3 H]cholesterol were included in the 10% corn oil meal on days one and five. Test compound was administered as a dietary admix. Compound was first mixed into the fat component of the diet before the dry components were added. Food consumption and body weight gain were determined. Feces were collected from day two to day four. Rats were killed on day five and the small intestine and contents were removed for analysis.

[5] = biological target: rat epididyml lipoprotein lipase (Rattus norvegicus, UniProt Q06000); conditions: read-out: I50 lipoprotein lipase; rat epididyml lipoprotein lipase in vitro
rat epididyml lipoprotein lipase, sequence (Q06000 28-474): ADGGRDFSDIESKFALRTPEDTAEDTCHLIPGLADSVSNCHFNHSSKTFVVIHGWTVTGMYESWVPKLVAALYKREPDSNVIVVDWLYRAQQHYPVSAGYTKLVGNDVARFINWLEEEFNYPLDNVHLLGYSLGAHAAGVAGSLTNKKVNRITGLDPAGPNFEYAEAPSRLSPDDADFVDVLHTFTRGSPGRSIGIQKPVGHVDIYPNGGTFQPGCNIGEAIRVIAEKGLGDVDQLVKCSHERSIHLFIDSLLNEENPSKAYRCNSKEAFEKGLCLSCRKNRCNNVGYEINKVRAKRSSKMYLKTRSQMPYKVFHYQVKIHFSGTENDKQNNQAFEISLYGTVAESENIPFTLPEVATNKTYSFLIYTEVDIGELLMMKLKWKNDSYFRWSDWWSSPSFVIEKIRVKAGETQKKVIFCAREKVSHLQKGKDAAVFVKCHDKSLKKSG
Procedure: Acetone powders of Zucker rat epididyml adipose tissue were the source of lipoprotein lipase and were prepared by the method of Garfinkel and Schotz, [A. S. Garfinkel and M. C. […] The adipose tissue was removed quickly and immediately homogenized in acetone (15 ml per gram of adipose tissue) in a Waring Blender at high speed for one minute, then filtered quickly through a coarse fritted glass funnel. The extract was washed twice with acetone (3 ml per gram of adipose tissue), then washed two more times with anhydrous ethyl ether (3 ml per gram adipose tissue). The powder was dried under vacuum for one hour, weighed and stored desiccated at -70° C. Approximately 0.013 g acetone powder was obtained per gram of epididyml adipose tissue. The lipoprotein lipase was extracted from the acetone powder into 0.05 M NH4 OH-NH4 Cl buffer, pH 8.6. The extracts were prepared by homogenizing the acetone powder in buffer in a TenBroeck glass tissue grinder in ice. The homogenate was centrifuged at 2,000×g for 20 min to remove insoluble material.
Ionophores were added to the above assays as solutions in either water or DMSO.

CC[C@@H](C(=O)[C@@H](C)[C@@H](O)[C@H](C)CCc1c([N+](=O)[O-])cc(C)c(O)c1[N+](=O)[O-])[C@H]1O[C@](CC)([C@H]2CC[C@](O)(CC)[C@H](C)O2)C[C@@H]1C [Dinitrodescarboxylasalocid]
Body Weight Gain ([1]; 60 mg/kg dietary admix): 64 ± 6 g | Body Weight final ([1]; 60 mg/kg dietary admix): 255 ± 8 g | Fat Absorption ([1]; 60 mg/kg dietary admix): 95.6 ± 0.6% | Food Consumption ([1]; 60 mg/kg dietary admix): 17.4 ± 0.6 g/day | Food Efficiency ([1]; 60 mg/kg dietary admix): 0.115 ± 0.010 g gained/g consumed | Serum Cholesterol ([1]; 60 mg/kg): 106 ± 6 mg/100 ml | Serum Free Fatty Acids ([1]; 60 mg/kg): 469 ± 46 μeq/l | Serum Glucose ([1]; 60 mg/kg): 173 ± 5 mg/100 ml | Serum IRI (immunoreactive insulin) ([1]; 60 mg/kg): 1.8 ± 0.2 ng/mL | Serum Triglycerides ([1]; 60 mg/kg): 73 ± 3 mg/100 ml | Body Weight Gain ([1]; 120 mg/kg dietary admix): 66 ± 8 g | Body Weight final ([1]; 120 mg/kg dietary admix): 256 ± 10 g | Fat Absorption ([1]; 120 mg/kg dietary admix): 95.8 ± 0.6% | Food Consumption ([1]; 120 mg/kg dietary admix): 19.0 ± 0.5 g/day | Food Efficiency ([1]; 120 mg/kg dietary admix): 0.109 ± 0.014 g gained/g consumed | Serum Cholesterol ([1]; 120 mg/kg): 88 ± 6 mg/100 ml | Serum Free Fatty Acids ([1]; 120 mg/kg): 425 ± 45 μeq/l | Serum Glucose ([1]; 120 mg/kg): 164 ± 5 mg/100 ml | Serum IRI (immunoreactive insulin) ([1]; 120 mg/kg): 2.0 ± 0.2 ng/mL | Serum Triglycerides ([1]; 120 mg/kg): 64 ± 5 mg/100 ml | Body Weight Gain ([1]; 240 mg/kg dietary admix): 51 ± 3 g | Body Weight final ([1]; 240 mg/kg dietary admix): 246 ± 4 g | Fat Absorption ([1]; 240 mg/kg dietary admix): 88.1 ± 1.7% | Food Consumption ([1]; 240 mg/kg dietary admix): 17.6 ± 0.5 g/day | Food Efficiency ([1]; 240 mg/kg dietary admix): 0.083 ± 0.011 g gained/g consumed | Serum Cholesterol ([1]; 240 mg/kg): 155 ± 9 mg/100 ml | Serum Free Fatty Acids ([1]; 240 mg/kg): 423 ± 61 μeq/l | Serum Glucose ([1]; 240 mg/kg): 155 ± 8 mg/100 ml | Serum IRI (immunoreactive insulin) ([1]; 240 mg/kg): 1.7 ± 0.2 ng/mL | Serum Triglycerides ([1]; 240 mg/kg): 51 ± 4 mg/100 ml | Body weight gain compared to controls and the respective pair-fed groups (FIG. 2) ([1]; 60, 120 and 240 mg/kg dietary admix): reduced significantly only at the 240 mg/kg dose | Body Weight Gain ([2]; Fa/- (lean)): 20 ± 4 g | Fat Absorption ([2]; Fa/- (lean)): 90.1 ± 0.9% | Fecal Weight ([2]; Fa/- (lean)): 1.6 ± 0.1 g | Final Body Weight ([2]; Fa/- (lean)): 202 ± 5 g | Food Consumption ([2]; Fa/- (lean)): 16.8 ± 0.8 g/day | Serum Cholesterol ([2]; Fa/- (lean)): 84 ± 7 mg/100 ml | Serum Free Fatty Acids ([2]; Fa/- (lean)): 519 ± 58 μeq/l | Serum Glucose ([2]; Fa/- (lean)): 154 ± 6 mg/100 ml | Serum IRI (immunoreactive insulin) ([2]; Fa/- (lean)): 0.5 ± 0.1 ng/mL | Serum Triglycerides ([2]; Fa/- (lean)): 71 ± 5 mg/100 ml | Body Weight Gain ([2]; fa/fa (obese)): 61 ± 6 g | Fat Absorption ([2]; fa/fa (obese)): 93.0 ± 1.1% | Fecal Weight ([2]; fa/fa (obese)): 2.1 ± 0.1 g | Final Body Weight ([2]; fa/fa (obese)): 352 ± 12 g | Food Consumption ([2]; fa/fa (obese)): 19.5 ± 0.9 g/day | Serum Cholesterol ([2]; fa/fa (obese)): 168 ± 6 mg/100 ml | Serum Free Fatty Acids ([2]; fa/fa (obese)): 668 ± 59 μeq/l | Serum Glucose ([2]; fa/fa (obese)): 201 ± 12 mg/100 ml | Serum IRI (immunoreactive insulin) ([2]; fa/fa (obese)): 8.3 ± 0.6 ng/mL | Serum Triglycerides ([2]; fa/fa (obese)): 178 ± 19 mg/100 ml | Area under curve (corn oil absorption) ([3]; 56 mg/kg p.o.): 1213 | Area under curve, % of control ([3]; 56 mg/kg p.o.): 86 % of control | Area under curve (corn oil absorption) ([3]; 120 mg/kg p.o.): 1072 | Area under curve, % of control ([3]; 120 mg/kg p.o.): 76 % of control | Area under curve (corn oil absorption) ([3]; 240 mg/kg p.o.): 564 | Area under curve, % of control ([3]; 240 mg/kg p.o.): 40 % of control | type of inhibition from Dixon plots (human pancreatic lipase): suggested competitive inhibition | Ki (human pancreatic lipase; in vitro Radiometer assay, read-out: inhibition constant (Ki)): 20 µM | 3H-Cholesterol in Feces ([4]; 120 mg/kg dietary admix): 28.6 ± 3.9 % of ingested | 14C in Feces ([4]; 120 mg/kg dietary admix): 2.4 ± 0.7 % of ingested | Body weight gain (BWG) ([4]; 120 mg/kg dietary admix): -1 ± 3 g | Fat Absorption ([4]; 120 mg/kg dietary admix): 95.6 ± 0.5% | Intestinal Cholsterol Esters ([4]; 120 mg/kg): 7.7 ± 1.2 % of 14C-lipid | Intestinal Contents 3H-cholesterol ([4]; 120 mg/kg): 1.7 ± 0.2 % ingested | Intestinal Contents 14C-lipid ([4]; 120 mg/kg): 0.75 ± 0.10 % ingested | Intestinal Free Fatty Acids ([4]; 120 mg/kg): 61.9 ± 1.3 % of 14C-lipid | Intestinal Mono- and Diglyceride ([4]; 120 mg/kg): 15.3 ± 1.3 % of 14C-lipid | Intestinal Triglyceride ([4]; 120 mg/kg): 9.1 ± 0.8 % of 14C-lipid | 3H-Cholesterol in Feces ([4]; 240 mg/kg dietary admix): 34.1 ± 2.6 % of ingested | 14C in Feces ([4]; 240 mg/kg dietary admix): 4.4 ± 0.8 % of ingested | Body weight gain (BWG) ([4]; 240 mg/kg dietary admix): -3 ± 2 g | Fat Absorption ([4]; 240 mg/kg dietary admix): 92.8 ± 0.7% | Food Consumption ([4]; 240 mg/kg dietary admix): 7.2 ± 0.5 g/day | Intestinal Cholsterol Esters ([4]; 240 mg/kg): 7.1 ± 0.8 % of 14C-lipid | Intestinal Contents 3H-cholesterol ([4]; 240 mg/kg): 1.2 ± 0.2 % ingested | Intestinal Contents 14C-lipid ([4]; 240 mg/kg): 0.66 ± 0.13 % ingested | Intestinal Free Fatty Acids ([4]; 240 mg/kg): 59.6 ± 2.6 % of 14C-lipid | Intestinal Mono- and Diglyceride ([4]; 240 mg/kg): 15.9 ± 0.9 % of 14C-lipid | Intestinal Triglyceride ([4]; 240 mg/kg): 10.3 ± 0.7 % of 14C-lipid | IC50 [5]: 270 µM
